Source: US10988523B2, “Modified lipidated Relaxin B chain peptides and their therapeutic use” (Sanofi, priority 2018, dated 2021)
*1 amine or outer side, *2 acyl side, *3 side chain or, on linkers, in order; H or OH if unused. Where a SMILES comes first, the peptide text is derived from it. Side-chain parts run from the residue outwards. [ ]: non-standard residue; d: D form. The star is where a group is joined. γGlu = O=C(O)[C@H](CCC(=O)[*:2])N[*:1]; Stearoyl = CCCCCCCCCCCCCCCCCC(=O)*; Nle = CCCC[C@H](N)C(=O)O; AEEA = NCCOCCOCC(=O)O; Aib = CC(C)(N)C(=O)O

Target: T1, RXFP1 (Homo sapiens, UniProt Q9HBX9)
T1 construct: OVCAR5 cells expressing endogenous RXFP1; endogenous in cells; host or cells: OVCAR5 cells
T1 sequence (Q9HBX9 1-757): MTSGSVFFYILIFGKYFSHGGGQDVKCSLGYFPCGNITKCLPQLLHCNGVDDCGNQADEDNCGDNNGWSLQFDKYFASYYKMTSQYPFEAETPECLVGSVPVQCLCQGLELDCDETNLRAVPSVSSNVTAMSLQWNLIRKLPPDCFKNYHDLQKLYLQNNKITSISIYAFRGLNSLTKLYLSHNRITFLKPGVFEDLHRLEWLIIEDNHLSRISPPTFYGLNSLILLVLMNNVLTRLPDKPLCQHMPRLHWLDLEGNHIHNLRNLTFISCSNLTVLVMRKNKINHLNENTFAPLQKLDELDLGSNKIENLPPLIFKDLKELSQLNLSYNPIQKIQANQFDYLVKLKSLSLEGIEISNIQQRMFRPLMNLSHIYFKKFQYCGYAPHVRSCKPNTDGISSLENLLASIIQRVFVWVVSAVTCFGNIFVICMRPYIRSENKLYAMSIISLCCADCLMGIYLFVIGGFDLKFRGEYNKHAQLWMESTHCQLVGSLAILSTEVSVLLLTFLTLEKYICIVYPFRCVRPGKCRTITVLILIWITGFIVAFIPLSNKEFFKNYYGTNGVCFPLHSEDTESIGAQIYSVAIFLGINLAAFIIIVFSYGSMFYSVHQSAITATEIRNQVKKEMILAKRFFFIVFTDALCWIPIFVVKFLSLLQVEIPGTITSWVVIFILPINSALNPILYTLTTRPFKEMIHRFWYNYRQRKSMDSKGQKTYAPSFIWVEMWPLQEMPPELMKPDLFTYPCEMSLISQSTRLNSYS
Assay: OVCAR5 cAMP assay (HTRF), RXFP1 agonist activity
Type: cell-based
Conditions: for Emax: OVCAR-5, maximal cAMP relative to H2-relaxin maximum (100%), read-out: EMax, OVCAR 5 cells (cAMP)
How it was run: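 OVCAR5 cells (endogenous RXFP1) pretreated 40 min at 37° C with 1 mM IBMX, then exposed to peptides in serum-free medium for 30 min at 37° C. Lysate cAMP read by HTRF; EC50 from variable-slope sigmoidal fit; Emax as % of H2-relaxin maximal cAMP in same run.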

Row | EC50 (OVCAR5 cells, cAMP HTRF, read-out: EC50 (nM), OVCAR 5 cells (cAMP)) | Emax | SMILES
1 | 0.07 nM | 88% | CCCCCCCCCCCCCCCCCC(=O)N[C@@H](CCC(=O)N[C@@H](CCC(=O)N[C@@H](CCC(=O)NCCOCCOCC(=O)NCCOCCOCC(=O)NCCOCCOCC(=O)NCCCC[C@H](NC(=O)[C@H](CCCCN)NC(=O)[C@H](CCCCN)NC(=O)[C@H](CCCNC(=N)N)NC(=O)C(C)(C)NC(=O)[C@H](CO)NC(=O)[C@H](Cc1c[nH]c2ccccc12)NC(=O)[C@@H](NC(=O)[C@H](CO)NC(=O)[C@H](CCCC)NC(=O)CNC(=O)[C@H](CCC(=O)O)NC(=O)C(C)(C)NC(=O)C(C)(C)NC(=O)[C@@H](NC(=O)[C@H](CCC(N)=O)NC(=O)[C@H](C)NC(=O)[C@H](CCCNC(=N)N)NC(=O)[C@@H](NC(=O)[C@H](CCCCN)NC(=O)[C@H](CCC(=O)O)NC(=O)[C@H](CCCNC(=N)N)NC(=O)CNC(=O)[C@H](CCC(=O)O)NC(=O)[C@H](CC(C)C)NC(C)=O)C(C)C)[C@@H](C)CC)[C@@H](C)O)C(N)=O)C(=O)O)C(=O)O)C(=O)O [compound 75] (Ac-LEGREKVRAQI[Aib][Aib]EG[Nle]STWS[Aib]RKKK([AEEA-AEEA-AEEA-γGlu-γGlu-γGlu-Stearoyl])-NH2)
2 |  | 89% | CCCCCCCCCCCCCCCCCC(=O)N[C@@H](CCC(=O)N[C@@H](CCC(=O)N[C@@H](CCC(=O)NCCOCCOCC(=O)NCCOCCOCC(=O)NCCOCCOCC(=O)NCCCC[C@H](NC(=O)[C@H](CCCCN)NC(=O)[C@H](CCCCN)NC(=O)[C@H](CCCNC(=N)N)NC(=O)C(C)(C)NC(=O)[C@@H](NC(=O)[C@H](Cc1c[nH]c2ccccc12)NC(=O)[C@@H](NC(=O)[C@H](CO)NC(=O)[C@H](CCCC)NC(=O)CNC(=O)[C@H](CCC(=O)O)NC(=O)C(C)(C)NC(=O)C(C)(C)NC(=O)[C@@H](NC(=O)[C@H](CCC(N)=O)NC(=O)[C@H](C)NC(=O)[C@H](CCCNC(=N)N)NC(=O)[C@@H](NC(=O)[C@H](CCCCN)NC(=O)[C@H](CCC(=O)O)NC(=O)[C@H](CCCNC(=N)N)NC(=O)CNC(=O)[C@H](CCC(=O)O)NC(=O)[C@H](CC(C)C)NC(C)=O)C(C)C)[C@@H](C)CC)[C@@H](C)O)[C@@H](C)O)C(N)=O)C(=O)O)C(=O)O)C(=O)O [compound 76] (Ac-LEGREKVRAQI[Aib][Aib]EG[Nle]STWT[Aib]RKKK([AEEA-AEEA-AEEA-γGlu-γGlu-γGlu-Stearoyl])-NH2)
3 |  | 92% | CCCCCCCCCCCCCCCCCC(=O)N[C@@H](CCC(=O)N[C@@H](CCC(=O)N[C@@H](CCC(=O)NCCOCCOCC(=O)NCCOCCOCC(=O)NCCOCCOCC(=O)NCCCC[C@H](NC(=O)[C@H](CCCCN)NC(=O)[C@H](CCCCN)NC(=O)[C@H](CCCNC(=N)N)NC(=O)C(C)(C)NC(=O)[C@H](CO)NC(=O)[C@H](Cc1c[nH]c2ccccc12)NC(=O)[C@@H](NC(=O)[C@H](CO)NC(=O)[C@H](CCCC)NC(=O)CNC(=O)[C@H](CCC(=O)O)NC(=O)C(C)(C)NC(=O)C(C)(C)NC(=O)[C@@H](NC(=O)[C@H](CCC(N)=O)NC(=O)[C@H](CC(C)C)NC(=O)[C@H](CCCNC(=N)N)NC(=O)[C@@H](NC(=O)[C@H](CCCCN)NC(=O)[C@H](CCC(=O)O)NC(=O)[C@H](CCCNC(=N)N)NC(=O)CNC(=O)[C@H](CCC(=O)O)NC(=O)[C@H](CC(C)C)NC(C)=O)C(C)C)[C@@H](C)CC)[C@@H](C)O)C(N)=O)C(=O)O)C(=O)O)C(=O)O [compound 77] (Ac-LEGREKVRLQI[Aib][Aib]EG[Nle]STWS[Aib]RKKK([AEEA-AEEA-AEEA-γGlu-γGlu-γGlu-Stearoyl])-NH2)
